Results: US20230295197A1, “STAT5 and STAT6 Degraders and Uses Thereof” (REGENTS OF THE UNIVERSITY OF MICHICAN, priority 2022, published 2023)
Where two headings read alike, the source gives them in different places.

Target: T1, STAT6 (Homo sapiens, UniProt P42226)
T1 construct: endogenous in cells; host or cells: MOLM-16, KU-812, SKNO1, MB231, L1236
T1 sequence (P42226 1-847): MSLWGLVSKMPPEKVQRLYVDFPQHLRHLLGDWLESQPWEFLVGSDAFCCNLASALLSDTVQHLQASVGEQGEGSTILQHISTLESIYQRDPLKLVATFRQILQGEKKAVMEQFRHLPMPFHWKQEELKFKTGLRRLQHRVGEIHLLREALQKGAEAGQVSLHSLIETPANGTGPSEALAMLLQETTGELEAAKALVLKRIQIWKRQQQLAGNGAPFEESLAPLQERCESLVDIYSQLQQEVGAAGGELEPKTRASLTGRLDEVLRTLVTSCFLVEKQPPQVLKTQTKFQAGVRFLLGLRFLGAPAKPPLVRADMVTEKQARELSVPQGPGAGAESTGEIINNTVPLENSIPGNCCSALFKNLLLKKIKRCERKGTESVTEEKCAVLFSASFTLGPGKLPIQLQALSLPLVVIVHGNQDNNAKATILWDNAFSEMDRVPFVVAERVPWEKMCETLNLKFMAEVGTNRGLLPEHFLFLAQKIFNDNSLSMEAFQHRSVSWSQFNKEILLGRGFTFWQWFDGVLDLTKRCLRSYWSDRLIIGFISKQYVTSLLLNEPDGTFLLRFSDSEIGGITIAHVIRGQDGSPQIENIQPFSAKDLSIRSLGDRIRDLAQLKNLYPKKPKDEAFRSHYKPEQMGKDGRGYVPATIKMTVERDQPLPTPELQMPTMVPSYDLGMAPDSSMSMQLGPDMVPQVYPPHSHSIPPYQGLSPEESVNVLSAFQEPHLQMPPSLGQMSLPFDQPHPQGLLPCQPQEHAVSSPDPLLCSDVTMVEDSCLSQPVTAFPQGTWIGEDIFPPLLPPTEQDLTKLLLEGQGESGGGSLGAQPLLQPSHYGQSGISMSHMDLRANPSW
Experiment: Immunoblotting (Western blot) analysis of STAT6 degradation efficiency of degraders in treated cells
Format: cell-based
Summary of the method: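 ~1e6 cells/pt; cpd at indicated conc and duration; RIPA + protease/phosphatase inhibitors; BCA; 20-40 μg/lane Tris-glycine SDS-PAGE; PVDF; primary Ab 1:1000 o/n 4 °C; IRDye secondaries 1 h rt; infrared scan and densitometry; GAPDH loading ctrl.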

[1] = MOLM-16 cells, class symbols, read-out: DC50 S6 MOLM-16
[2] = L1236 cells, read-out: DC50 S6 L1236

Row | SMILES | DC50 [1] | DC50 [2] | DC50 (MB231 cells, read-out: DC50 S6 MB231)
1 | Cc1ncsc1-c1ccc([C@H](CC(=O)NCCCCCCCCC(=O)N[C@H]2C[C@@H](C(=O)N3CCO[C@H](c4ccccc4)C3)N(C(=O)[C@@H](NC(=O)c3cc4cc(C(F)(F)P(=O)(O)O)ccc4s3)C(C)(C)C)C2)NC(=O)[C@@H]2C[C@@H](O)CN2C(=O)[C@@H](NC(=O)C2(F)CC2)C(C)(C)C)cc1 [Compound 571, (difluoro(2-(((S)-1-((2S,4S)-4-(9-((S)-3-((2S,4R)-1-((S)-2-(1-fluorocyclopropane-1-carboxamido)-3,3-dimethylbutanoyl)-4-hydroxypyrrolidine-2-carboxamido)-3-(4-(4-methylthiazol-5-yl)phenyl)propanamido)nonanamido)-2-((R)-2-phenylmorpholine-4-carbonyl)pyrrolidin-1-yl)-3,3-dimethyl-1-oxobutan-2-yl)carbamoyl)benzo[b]thiophen-5-yl)methyl)phosphonic acid] | > 10 µM | – | –
2 | Cc1ncsc1-c1ccc(CNC(=O)[C@@H]2C[C@@H](O)CN2C(=O)[C@@H](NC(=O)CCCCCCCNC(=O)CO[C@@H]2C[C@@H](C(=O)N(C)c3ccc(Br)cc3)N(C(=O)[C@@H](NC(=O)c3cc4cc(C(F)(F)P(=O)(O)O)ccc4s3)C(C)(C)C)C2)C(C)(C)C)cc1 [Compound 419, ((2-(((S)-1-((2S,4R)-2-((4-bromophenyl)(methyl)carbamoyl)-4-(2-((8-(((S)-1-((2S,4R)-4-hydroxy-2-((4-(4-methylthiazol-5-yl)benzyl)carbamoyl)pyrrolidin-1-yl)-3,3-dimethyl-1-oxobutan-2-yl)amino)-8-oxooctyl)amino)-2-oxoethoxy)pyrrolidin-1-yl)-3,3-dimethyl-1-oxobutan-2-yl)carbamoyl)benzo[b]thiophen-5-yl)difluoromethyl)phosphonic acid] | – | > 10 µM | > 10 µM
3 | Cc1ncsc1-c1ccc([C@H](C)NC(=O)[C@@H]2C[C@@H](O)CN2C(=O)[C@@H](NC(=O)CCCCCNC(=O)COc2ccc3c(c2)CN(C(=O)[C@@H](NC(=O)c2cc4cc(C(F)(F)P(=O)(O)O)ccc4s2)C(C)(C)C)[C@H](C(=O)N2CCC[C@H](c4ccccc4)C2)C3)C(C)(C)C)cc1 [Compound 474, (difluoro(2-(((S)-1-((S)-7-(2-((6-(((S)-1-((2S,4R)-4-hydroxy-2-(((S)-1-(4-(4-methylthiazol-5-yl)phenyl)ethyl)carbamoyl)pyrrolidin-1-yl)-3,3-dimethyl-1-oxobutan-2-yl)amino)-6-oxohexyl)amino)-2-oxoethoxy)-3-((R)-3-phenylpiperidine-1-carbonyl)-3,4-dihydroisoquinolin-2(1H)-yl)-3,3-dimethyl-1-oxobutan-2-yl)carbamoyl)benzo[b]thiophen-5-yl)methyl)phosphonic acid] | > 10 µM | – | –
4 | CC(C)(C)[C@H](NC(=O)c1cc2cc(C(F)(F)P(=O)(O)O)ccc2s1)C(=O)N1CCN(C(=O)CC(=O)NCC#Cc2cccc3c2C(=O)N(C2CCC(=O)NC2=O)C3=O)C[C@H]1C(=O)N1CCO[C@H](c2ccccc2)C1 (stereo partly drawn) [Compound 507, ((2-(((2S)-1-((2S)-4-(3-((3-(2-(2,6-dioxopiperidin-3-yl)-1,3-dioxoisoindolin-4-yl)prop-2-yn-1-yl)amino)-3-oxopropanoyl)-2-((R)-2-phenylmorpholine-4-carbonyl)piperazin-1-yl)-3,3-dimethyl-1-oxobutan-2-yl)carbamoyl)benzo[b]thiophen-5-yl)difluoromethyl)phosphonic acid] | > 10 µM | – | –
5 | Cc1ncsc1-c1ccc([C@H](C)NC(=O)[C@@H]2C[C@@H](O)CN2C(=O)[C@@H](NC(=O)CCCCCCNC(=O)CO[C@H]2C[C@@H](C(=O)N3CCO[C@H](c4ccccc4)C3)N(C(=O)[C@@H](NC(=O)c3cc4cc(C(F)(F)P(=O)(O)O)ccc4s3)C(C)(C)C)C2)C(C)(C)C)cc1 [Compound 430, (difluoro(2-(((S)-1-((2S,4S)-4-(2-((7-(((S)-1-((2S,4R)-4-hydroxy-2-(((S)-1-(4-(4-methylthiazol-5-yl)phenyl)ethyl)carbamoyl)pyrrolidin-1-yl)-3,3-dimethyl-1-oxobutan-2-yl)amino)-7-oxoheptyl)amino)-2-oxoethoxy)-2-((R)-2-phenylmorpholine-4-carbonyl)pyrrolidin-1-yl)-3,3-dimethyl-1-oxobutan-2-yl)carbamoyl)benzo[b]thiophen-5-yl)methyl)phosphonic acid] | > 10 µM | > 10 µM | –
6 | Cc1ncsc1-c1ccc([C@H](C)NC(=O)[C@@H]2C[C@@H](O)CN2C(=O)[C@@H](NC(=O)CCCCCNC(=O)CC(=O)N2CCN(C(=O)[C@@H](NC(=O)c3cc4cc(C(F)(F)P(=O)(O)O)ccc4s3)C(C)(C)C)[C@H](C(=O)N3CCC[C@H](c4ccccc4)C3)C2)C(C)(C)C)cc1 [Compound 456, (difluoro(2-(((S)-1-((S)-4-(3-((6-(((S)-1-((2,4R)-4-hydroxy-2-(((S)-1-(4-(4-methylthiazol-5-yl)phenyl)ethyl)carbamoyl)pyrrolidin-1-yl)-3,3-dimethyl-1-oxobutan-2-yl)amino)-6-oxohexyl)amino)-3-oxopropanoyl)-2-((R)-3-phenylpiperidine-1-carbonyl)piperazin-1-yl)-3,3-dimethyl-1-oxobutan-2-yl)carbamoyl)benzo[b]thiophen-5-yl)methyl)phosphonic acid] | > 10 µM | > 10 µM | –
7 | CC(C)(C)[C@H](NC(=O)c1cc2cc(C(F)(F)P(=O)(O)O)ccc2s1)C(=O)N1Cc2cc(OCC(=O)NCCCCCCCCC#Cc3ccc4c(c3)C(=O)N(C3CCC(=O)NC3=O)C4=O)ccc2C[C@H]1C(=O)N1CCC[C@H](c2ccccc2)C1 (stereo partly drawn) [Compound 560, ((2-(((2S)-1-((3S)-7-(2-((10-(2-(2,6-dioxopiperidin-3-yl)-1,3-dioxoisoindolin-5-yl)dec-9-yn-1-yl)amino)-2-oxoethoxy)-3-((R)-3-phenylpiperidine-1-carbonyl)-3,4-dihydroisoquinolin-2(1H)-yl)-3,3-dimethyl-1-oxobutan-2-yl)carbamoyl)benzo[b]thiophen-5-yl)difluoromethyl)phosphonic acid] | > 10 µM | – | –
8 | CC(C)(C)[C@H](NC(=O)c1cc2cc(C(F)(F)P(=O)(O)O)ccc2s1)C(=O)N1CCN(C(=O)CC(=O)NCCC#Cc2cccc3c2C(=O)N(C2CCC(=O)NC2=O)C3=O)C[C@H]1C(=O)N1CCO[C@H](c2ccccc2)C1 (stereo partly drawn) [Compound 509, ((2-(((2S)-1-((2S)-4-(3-((4-(2-(2,6-dioxopiperidin-3-yl)-1,3-dioxoisoindolin-4-yl)but-3-yn-1-yl)amino)-3-oxopropanoyl)-2-((R)-2-phenylmorpholine-4-carbonyl)piperazin-1-yl)-3,3-dimethyl-1-oxobutan-2-yl)carbamoyl)benzo[b]thiophen-5-yl)difluoromethyl)phosphonic acid] | > 10 µM | – | –
9 | Cc1ncsc1-c1ccc([C@H](C)NC(=O)[C@@H]2C[C@@H](O)CN2C(=O)[C@@H](NC(=O)CCCCCCCCNC(=O)CC(=O)N2CCN(C(=O)[C@@H](NC(=O)c3cc4cc(C(F)(F)P(=O)(O)O)ccc4s3)C(C)(C)C)[C@H](C(=O)N3CCC[C@H](c4ccccc4)C3)C2)C(C)(C)C)cc1 [Compound 459, (difluoro(2-(((S)-1-((S)-4-(3-((9-(((S)-1-((2S,4R)-4-hydroxy-2-(((S)-1-(4-(4-methylthiazol-5-yl)phenyl)ethyl)carbamoyl)pyrrolidin-1-yl)-3,3-dimethyl-1-oxobutan-2-yl)amino)-9-oxononyl)amino)-3-oxopropanoyl)-2-((R)-3-phenylpiperidine-1-carbonyl)piperazin-1-yl)-3,3-dimethyl-1-oxobutan-2-yl)carbamoyl)benzo[b]thiophen-5-yl)methyl)phosphonic acid] | > 10 µM | > 10 µM | –
